Where two headings read alike, the source gives them in different places.
Tests used:
[1] = system: bicistronic subgenomic replicon (genotype 1b); test: Bicistronic subgenomic replicon suppression, 72 hour assay in HuH-7 cells; type: cell-based, HCV; conditions: Hepatitis C virus
Excerpt: NS3-mediated cleavage of the HCV polyprotein releases functional viral proteins essential for viral propagation. Therefore, blockage of NS3 protease activity by compound of Formula Ia is expected to inhibit viral replication in infected host cells.

[2] = Multiple oral dosing for 14 days, pharmacokinetics in HCV infected subjects (Example 3); type: in vivo, human; conditions: for DN Cmax / DN-AUC(0-12 hr): dose-normalized (to 100 mg); for Cmin: at 0 hour (trough) predose; for Cmax / AUC(0-t) / Tmax / Vd/F / half-life: human, plasma, oral; for half-life: read-out: t½ (converted)
Experimental: Multiple escalating doses of compound of Formula Ia were administered for 14 days to HCV positive subjects who were genotype 1 Interferon-a (with or without ribavirin) non responders. In a randomized, placebo controlled, third party blind study, multiple doses of 100 mg BID, 200 mg BID, 400 mg BID, 400 mg TID, and 600 mg TID of compound of Formula Ia or placebo in a 3:1 ratio with or without food were evaluated.
Upon acceptance into the study, within each cohort, subjects were randomized in a 3:1 ratio (active to placebo) and received one of the following dosing groups: • Group 1: Compound of Formula Ia 100 mg (2×50 mg) BID or matching placebo×14 days without food. • Group 2: Compound of Formula Ia 200 mg (2×100 mg) BID or matching placebo×14 days without food. • Group 3: Compound of Formula Ia 400 mg (4×100 mg) BID or matching placebo×14 days without food. • Group4: Compound of Formula Ia 400 mg (4×100 mg) TID or matching placebo×14 days without food. • Group 5: Compound of Formula Ia 400 mg (4×100 mg) BID or matching placebo×14 days with food. • Group 6: Compound of Formula Ia 600 mg (6×100 mg) BID or matching placebo×14 days without food. • Group 7: Compound of Formula Ia 600 mg (6×100 mg) BID or matching placebo×14 days with food. • Group 8: compound of Formula Ia 600 mg (6×100 mg) TID or matching placebo×14 days without food. • Group 9: compound of Formula Ia intermediate dose or matching placebo×14 days with or without food.
Each subject was randomized to one treatment group. On Day 14, only the AM dose was administered.
For Cohorts Without Food: Treatments were administered on the morning (approximately 8 AM) of Days 1 and 14 following a 10 hour fast. Fasting continued until 4 hours postdose. Water was allowed during the fasting period. On the nonpharmacokinetic collection days (Days 2 through 13) breakfast and dinner were consumed either 90 minutes before or 90 minutes after each dose. All treatments were administered with approximately 240 mL of noncarbonated water. All doses on Days 1-14 were administered at approximately the same time each day, for cohorts with BID dosing study treatment were administered approximately 12 hours apart at 8 AM and 8 PM, and for cohorts with TID dosing study treatment were administered approximately 8 hours apart at 8 AM, 4 PM, and 12 Midnight.
For Cohorts With TID Dosing: All volunteers were dosed three times daily at approximately the same time each day; the doses were administered approximately 8 hours apart at 8 AM, 4 PM, and 12 Midnight.
For Cohorts With BID Dosing: All volunteers were dosed twice a day at approximately the same time each day. The doses were administered approximately 12 hours apart at 8 AM and 8 PM.
On Day 14, all subjects received only their assigned AM dose. During the dosing the capsule(s) were swallowed whole, not chewed or crushed. After dosing, the oral cavity was inspected to assure the volunteer had completely swallowed the capsule(s). […] Water was permitted throughout the fasting and nonfasting periods.
The plasma concentration data of compound of Formula Ia was used to estimate the following pharmacokinetic parameters: • Cmax—Maximum observed plasma concentration; • Tmax—Time of observed maximum plasma concentration; • AUC(0-t)—Area under the plasma concentration-time curve over the dosing interval • AUC (tf)—Area under the plasma concentration-time curve to the final quantifiable sample • CL/F—Apparent total body clearance. • t½—Terminal phase half life • Vd/F—Apparent volume of distribution • R—Accumulation ratio
All plasma samples were assayed for compound of Formula Ia using a validated liquid chromatographic tandem mass spectrometric (LC-MS/MS) method.

[3] = 100 mg, Day 14, 100 mg BID, mean
[4] = 200 mg, Day 14, 200 mg BID, mean
[5] = 400 mg, Day 14, 400 mg BID, mean
[6] = 400 mg, Day 14, 400 mg TID, mean

SMILES: CC(C)(C)NC(=O)N[C@H](C(=O)N1C[C@H]2[C@@H]([C@H]1C(=O)NC(CC1CCC1)C(=O)C(N)=O)C2(C)C)C(C)(C)C (mixture of isomers) [Formula Ia, (1 R, 5S)-N-[3-Amino-1-(Cyclobutylmethyl)-2,3-Dioxopropyl]-3-[2(S)-[[[(1,1-Dimethylethyl)Amino]Carbonyl]Amino]-3,3-Dimethyl-1-Oxobutyl]-6,6-Dimethyl-3-Azabicyclo[3.1.0]Hexan-2(S)-Carboxamide]
- IC50 ([1]; n=25, read-out: IC50 for suppression (4-log reduction) of the replicon (converted)): ~200 nM
- IC90 ([1]; n=25, read-out: IC90 for suppression (4-log reduction) of the replicon (converted)): ~400 nM
- mean accumulation ratio ([2]; BID dosing): 1
- DN Cmax ([2]; Day 1, 100 mg BID, mean): 131 ng/mL
- DN-AUC(0-12 hr) ([2]; Day 1, 100 mg BID, mean): 417 ng·h/mL
- DN Cmax ([2]; Day 1, 200 mg BID, mean): 162 ng/mL
- DN-AUC(0-12 hr) ([2]; Day 1, 200 mg BID, mean): 492 ng·h/mL
- DN Cmax ([2]; Day 1, 400 mg BID, mean): 116 ng/mL
- DN-AUC(0-12 hr) ([2]; Day 1, 400 mg BID, mean): 421 ng·h/mL
- Cmin ([2]; Day 14, 100 mg BID, mean): 12.7 ng/mL
- DN Cmax ([2]; Day 14, 100 mg BID, mean): 193 ng/mL
- DN-AUC(0-12 hr) ([2]; Day 14, 100 mg BID, mean): 700 ng·h/mL
- CL/F ([2]; Day 14, 100 mg BID, mean): 159 L/h
- R (accumulation ratio) ([2]; Day 14, 100 mg BID, mean): 2.40
- t½ ([2]; Day 14, 100 mg BID, mean): 8.58 h
- Cmin ([2]; Day 14, 200 mg BID, mean): 46.3 ng/mL
- DN Cmax ([2]; Day 14, 200 mg BID, mean): 212 ng/mL
- DN-AUC(0-12 hr) ([2]; Day 14, 200 mg BID, mean): 693 ng·h/mL
- CL/F ([2]; Day 14, 200 mg BID, mean): 155 L/h
- R (accumulation ratio) ([2]; Day 14, 200 mg BID, mean): 1.45
- Cmin ([2]; Day 14, 400 mg BID, mean): 48.8 ng/mL
- DN Cmax ([2]; Day 14, 400 mg BID, mean): 115 ng/mL
- DN-AUC(0-12 hr) ([2]; Day 14, 400 mg BID, mean): 411 ng·h/mL
- CL/F ([2]; Day 14, 400 mg BID, mean): 269 L/h
- R (accumulation ratio) ([2]; Day 14, 400 mg BID, mean): 1.00
- Cmin ([2]; Day 14, 400 mg TID, mean): 183 ng/mL
- DN Cmax ([2]; Day 14, 400 mg TID, mean): 138 ng/mL
- CL/F ([2]; Day 14, 400 mg TID, mean): 206 L/h
- R (accumulation ratio) ([2]; Day 14, 400 mg TID, mean): 1.26
- Cmax ([2]; 100 mg, Day 1, 100 mg BID, mean, n = 12): 131 ng/mL
- AUC(0-t) ([2]; 100 mg, Day 1, 100 mg BID, mean, read-out: AUC(0-12 hr)): 417 ng·h/mL
- Tmax ([2]; 100 mg, Day 1, 100 mg BID, median, read-out: Tmax): 1.5 h
- Cmax [2, 3]: 193 ng/mL
- Vd/F [2, 3]: 1860 L
- AUC(0-t) ([2]; 100 mg, Day 14, 100 mg BID, mean, read-out: AUC(0-12 hr)): 700 ng·h/mL
- half-life [2, 3]: 8.5 h
- Tmax ([2]; 100 mg, Day 14, 100 mg BID, median, read-out: Tmax): 1.25 h
- Cmax ([2]; 200 mg, Day 1, 200 mg BID, mean, n = 12): 324 ng/mL
- AUC(0-t) ([2]; 200 mg, Day 1, 200 mg BID, mean, read-out: AUC(0-12 hr)): 983 ng·h/mL
- Tmax ([2]; 200 mg, Day 1, 200 mg BID, median, read-out: Tmax): 1 h
- Cmax [2, 4]: 424 ng/mL
- Vd/F [2, 4]: 2910 L
- AUC(0-t) ([2]; 200 mg, Day 14, 200 mg BID, mean, read-out: AUC(0-12 hr)): 1390 ng·h/mL
- half-life [2, 4]: 13.4 h
- Tmax ([2]; 200 mg, Day 14, 200 mg BID, median, read-out: Tmax): 1.25 h
- Cmax ([2]; 400 mg, Day 1, 400 mg BID, mean, n = 11): 463 ng/mL
- AUC(0-t) ([2]; 400 mg, Day 1, 400 mg BID, mean, read-out: AUC(0-12 hr)): 1680 ng·h/mL
- Tmax ([2]; 400 mg, Day 1, 400 mg BID, median, read-out: Tmax): 1.5 h
- Cmax ([2]; 400 mg, Day 1, 400 mg TID, mean, n = 10): 504 ng/mL
- AUC(0-t) ([2]; 400 mg, Day 1, 400 mg TID, mean, read-out: AUC(0-8 hr)): 1650 ng·h/mL
- Tmax ([2]; 400 mg, Day 1, 400 mg TID, median, read-out: Tmax): 1.5 h
- Cmax [2, 5]: 459 ng/mL
- Vd/F [2, 5]: 5030 L
- AUC(0-t) ([2]; 400 mg, Day 14, 400 mg BID, mean, read-out: AUC(0-12 hr)): 1640 ng·h/mL
- half-life [2, 5]: 12.4 h
- Tmax ([2]; 400 mg, Day 14, 400 mg BID, median, read-out: Tmax): 1 h
- Cmax [2, 6]: ~550 ng/mL
- Vd/F [2, 6]: ~5000 L
- AUC(0-t) ([2]; 400 mg, Day 14, 400 mg TID, mean, read-out: AUC(0-8 hr)): 1990 ng·h/mL
- half-life [2, 6]: 15.9 h
- Tmax ([2]; 400 mg, Day 14, 400 mg TID, median, read-out: Tmax): 1.5 h
- Tmax ([2]; across dosages (100 mg BID to 400 mg TID), read-out: Mean Tmax): 1 to 1.5 h
- Time at which steady-state trough levels were reached ([2]; multiple dosing): ~11 days

— patent US20060276407A1, “Methods of treating hepatitis C virus” (Schering Corporation, priority 2005, published 2006)
